Measurements as given in publication PMC8041777, “Protein kinase A controls the hexosamine pathway by tuning the feedback inhibition of GFAT-1” (Nature Communications, 2021).

Target: T1, GFAT-1 (human GFAT-1 isoform 2, hGFAT1) (Homo sapiens, UniProt Q06210)
T1 construct: gene GFPT1; full length, internal His6-tag between Gly299 and Asp300 (kept), expressed in Sf21 insect cells (MultiBac), Ni-NTA and SEC purified
Test: GDH-coupled amidohydrolysis assay (APADH at […] nm)
Assay type: biochemical
Details: 10 mM L-Gln, 6 mM Frc6P, 1 mM APAD, 50 mM KCl, 100 mM potassium phosphate pH 7.5, 37 °C; allosteric feedback inhibitor, isomerase domain site

T1 sequence (Q06210 2-681 isoform Q06210-2): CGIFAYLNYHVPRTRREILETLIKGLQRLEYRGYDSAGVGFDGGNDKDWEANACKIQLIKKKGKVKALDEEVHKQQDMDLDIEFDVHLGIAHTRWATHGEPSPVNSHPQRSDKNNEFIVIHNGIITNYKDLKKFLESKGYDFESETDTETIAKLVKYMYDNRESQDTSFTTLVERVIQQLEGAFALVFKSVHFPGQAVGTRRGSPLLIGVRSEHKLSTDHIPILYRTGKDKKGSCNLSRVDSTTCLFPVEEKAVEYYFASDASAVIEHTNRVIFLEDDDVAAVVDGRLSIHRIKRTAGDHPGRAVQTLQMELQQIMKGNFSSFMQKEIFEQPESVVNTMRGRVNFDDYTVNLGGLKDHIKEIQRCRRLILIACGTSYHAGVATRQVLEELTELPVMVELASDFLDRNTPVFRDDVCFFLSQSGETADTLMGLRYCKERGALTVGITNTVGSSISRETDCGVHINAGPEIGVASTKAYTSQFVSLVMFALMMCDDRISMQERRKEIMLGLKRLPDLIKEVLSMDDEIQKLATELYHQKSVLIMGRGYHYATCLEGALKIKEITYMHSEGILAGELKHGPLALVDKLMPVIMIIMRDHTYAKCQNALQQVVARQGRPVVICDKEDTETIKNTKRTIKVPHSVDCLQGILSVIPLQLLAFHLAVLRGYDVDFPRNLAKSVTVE

`CC(=O)N[C@H]1[C@@H](OP(=O)(O)OP(=O)(O)OC[C@H]2O[C@@H](n3ccc(=O)[nH]c3=O)[C@H](O)[C@@H]2O)O[C@H](CO)[C@@H](O)[C@@H]1O` [UDP-GlcNAc] was tested, and the IC50 was 41.4 −3.5/+3.9 µM.
